Test results taken from patent US9212182B2, “Bicyclic sulfonamide compounds as sodium channel inhibitors” (AMGEN INC., priority 2013, dated 2015).

Biological target: Nav 1.7 (Homo sapiens (Human), UniProt Q15858)
Experiment: in-vitro Nav 1.7 PX (IC50)
Format: cell-based
Conditions: not given

Nav 1.7, sequence (Q15858 whole entry): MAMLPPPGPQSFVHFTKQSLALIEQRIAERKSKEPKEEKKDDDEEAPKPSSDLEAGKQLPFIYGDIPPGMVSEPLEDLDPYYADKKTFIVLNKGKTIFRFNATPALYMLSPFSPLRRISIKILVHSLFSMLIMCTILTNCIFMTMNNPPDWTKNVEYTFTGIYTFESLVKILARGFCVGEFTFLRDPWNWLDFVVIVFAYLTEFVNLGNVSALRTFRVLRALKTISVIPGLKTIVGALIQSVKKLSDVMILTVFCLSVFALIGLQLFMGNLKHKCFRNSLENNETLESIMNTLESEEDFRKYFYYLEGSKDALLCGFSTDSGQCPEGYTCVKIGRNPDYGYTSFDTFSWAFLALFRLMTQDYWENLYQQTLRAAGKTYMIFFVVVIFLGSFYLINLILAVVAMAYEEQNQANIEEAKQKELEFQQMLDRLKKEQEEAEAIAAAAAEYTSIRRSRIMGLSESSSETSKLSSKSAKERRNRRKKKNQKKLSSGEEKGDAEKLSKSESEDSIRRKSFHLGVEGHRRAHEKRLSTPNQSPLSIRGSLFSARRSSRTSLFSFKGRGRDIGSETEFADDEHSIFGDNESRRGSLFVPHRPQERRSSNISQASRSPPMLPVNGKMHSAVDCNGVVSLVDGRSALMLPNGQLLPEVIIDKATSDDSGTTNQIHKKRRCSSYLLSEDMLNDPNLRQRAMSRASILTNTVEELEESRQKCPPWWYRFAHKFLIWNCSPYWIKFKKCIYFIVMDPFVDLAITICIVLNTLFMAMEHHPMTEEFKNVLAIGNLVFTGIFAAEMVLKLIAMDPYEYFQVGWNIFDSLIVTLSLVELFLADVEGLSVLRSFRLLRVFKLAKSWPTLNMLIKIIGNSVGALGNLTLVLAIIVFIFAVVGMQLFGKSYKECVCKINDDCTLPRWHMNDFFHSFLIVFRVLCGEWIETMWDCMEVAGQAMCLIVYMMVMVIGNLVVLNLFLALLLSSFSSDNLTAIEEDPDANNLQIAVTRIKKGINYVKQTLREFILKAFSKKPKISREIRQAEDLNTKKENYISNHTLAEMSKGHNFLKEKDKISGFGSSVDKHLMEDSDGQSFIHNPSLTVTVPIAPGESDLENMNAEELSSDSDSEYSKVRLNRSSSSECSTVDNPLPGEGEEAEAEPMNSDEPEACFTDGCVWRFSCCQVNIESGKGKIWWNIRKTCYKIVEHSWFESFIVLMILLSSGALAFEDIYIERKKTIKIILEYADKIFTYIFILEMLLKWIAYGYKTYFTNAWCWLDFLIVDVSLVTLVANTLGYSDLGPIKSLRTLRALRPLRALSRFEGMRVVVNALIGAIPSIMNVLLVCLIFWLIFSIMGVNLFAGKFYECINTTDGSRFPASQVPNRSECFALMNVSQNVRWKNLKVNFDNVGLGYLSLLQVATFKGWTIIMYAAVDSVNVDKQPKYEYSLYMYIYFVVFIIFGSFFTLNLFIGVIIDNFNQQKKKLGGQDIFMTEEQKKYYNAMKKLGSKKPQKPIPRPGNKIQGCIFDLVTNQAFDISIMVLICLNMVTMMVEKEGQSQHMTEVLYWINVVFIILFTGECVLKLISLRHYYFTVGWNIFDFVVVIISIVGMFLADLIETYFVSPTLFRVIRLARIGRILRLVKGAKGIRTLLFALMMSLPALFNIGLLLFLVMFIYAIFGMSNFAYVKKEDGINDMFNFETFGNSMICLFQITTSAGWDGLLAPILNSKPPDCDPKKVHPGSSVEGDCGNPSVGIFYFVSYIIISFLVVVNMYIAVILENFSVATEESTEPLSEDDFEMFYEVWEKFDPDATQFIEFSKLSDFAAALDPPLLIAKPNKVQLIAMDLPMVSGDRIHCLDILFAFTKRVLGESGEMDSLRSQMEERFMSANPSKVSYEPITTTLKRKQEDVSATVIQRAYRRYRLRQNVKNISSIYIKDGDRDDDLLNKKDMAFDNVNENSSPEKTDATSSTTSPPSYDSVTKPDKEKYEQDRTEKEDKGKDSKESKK

Row | Molecule | IC50
1 | COc1cc(-c2cccc(C(F)(F)F)c2)ccc1-n1c(=O)ccc2cc(S(=O)(=O)Nc3cccc(F)n3)ccc21 (atropisomer, axis not shown; (P)) [Example 1242, (P)—N-(6-fluoro-2-pyridinyl)-1-(3-methoxy-3′-(trifluoromethyl)-4-biphenylyl)-2-oxo-1,2-dihydro-6-quinolinesulfonamide] | 0.079 µM
2 | COc1cc(Br)c(F)cc1-n1c(=O)ccc2cc(S(=O)(=O)Nc3cc(OCC4(C)CC4)ncn3)ccc21 (atropisomer, axis not shown; (P)) [Example 1189, (P)-1-(4-bromo-5-fluoro-2-methoxyphenyl)-N-(6-((1-methylcyclopropyl)methoxy)-4-pyrimidinyl)-2-oxo-1,2-dihydro-6-quinolinesulfonamide] | 8.36 µM
3 | 1-(2′-chloro-5-methoxy-2,3′-dimethyl-4-biphenylyl)-2-oxo-N-2-pyrimidinyl-1,2-dihydro-6-quinolinesulfonamide [Example 961] | 0.056 µM
4 | COc1cc(-c2ccc(Cl)c(F)c2)ccc1-n1c(=O)ccc2cc(S(=O)(=O)Nc3ccon3)ccc21 (atropisomer, axis not shown; (M)) [Example 579, (M)-1-(4′-chloro-3′-fluoro-3-methoxy-4-biphenylyl)-N-3-isoxazolyl-2-oxo-1,2-dihydro-6-quinolinesulfonamide] | 4.31 µM
5 | COc1cc(-c2cc(OC)c(-n3c(=O)cnc4cc(S(=O)(=O)Nc5ncccn5)ccc43)cc2F)ccc1Cl [Example 1201, 1-(4′-chloro-2-fluoro-3′,5-dimethoxy-4-biphenylyl)-2-oxo-N-2-pyrimidinyl-1,2-dihydro-6-quinoxalinesulfonamide] | 0.11 µM
6 | COc1cc(-c2cccc(Cl)c2)c(C)cc1-n1c(=O)ccc2cc(S(=O)(=O)Nc3ncccn3)ccc21 (atropisomer, axis not shown; (P)) [Example 321, (P)-1-(3′-chloro-5-methoxy-2-methyl-4-biphenylyl)-2-oxo-N-2-pyrimidinyl-1,2-dihydro-6-quinolinesulfonamide] | 0.01 µM
7 | COc1cc(OC)cc(-c2cc(OC)c(-n3c(=O)ccc4cc(S(=O)(=O)Nc5ccnc(C)n5)ccc43)cc2F)c1 (atropisomer, axis not shown; (P)) [Example 1171, (P)-1-(2-fluoro-3′,5,5′-trimethoxy-4-biphenylyl)-N-(2-methyl-4-pyrimidinyl)-2-oxo-1,2-dihydro-6-quinolinesulfonamide] | 0.096 µM
8 | COc1ccc(-c2cncc(C#N)c2)cc1-n1c(=O)ccc2cc(S(=O)(=O)Nc3ccon3)ccc21 [Example 491, 1-(5-(5-cyano-3-pyridinyl)-2-methoxyphenyl)-N-3-isoxazolyl-2-oxo-1,2-dihydro-6-quinolinesulfonamide] | 2.07 µM
9 | COc1cc(-c2cc(F)cc(Cl)c2)c(Cl)cc1-n1c(=O)ccc2cc(S(=O)(=O)Nc3ccon3)ccc21 (atropisomer, axis not shown; (M)) [Example 462, (M)-1-(2,3′-dichloro-5′-fluoro-5-methoxy-[1,1′-biphenyl]-4-yl)-N-(isoxazol-3-yl)-2-oxo-1,2-dihydroquinoline-6-sulfonamide] | 0.193 µM

Same assay, conditions: in-vitro Nav 1.7 PX data

Row | Molecule | IC50
10 | COc1cc(-c2cc(C)ccc2Cl)c(F)cc1-n1c(=O)ccc2cc(S(=O)(=O)Nc3ccon3)ccc21 [Example 716, 1-(2′-chloro-2-fluoro-5-methoxy-5′-methyl-4-biphenylyl)-N-3-isoxazolyl-2-oxo-1,2-dihydro-6-quinolinesulfonamide] | 0.006 µM
11 | COc1ccc(F)c(-c2cc(OC)c(-n3c(=O)ccc4cc(S(=O)(=O)Nc5ccon5)ccc43)cc2F)c1 [Example 732, 1-(2,2′-difluoro-5,5′-dimethoxy-4-biphenylyl)-N-3-isoxazolyl-2-oxo-1,2-dihydro-6-quinolinesulfonamide] | 0.056 µM
12 | COc1cc(-c2ccc(Cl)c(C)c2)c(F)cc1-n1c(=O)ccc2cc(S(=O)(=O)Nc3ncc(F)cn3)ccc21 (atropisomer, axis not shown; (P)) [Example 692, (P)-1-(4′-chloro-2-fluoro-5-methoxy-3′-methyl-4-biphenylyl)-N-(5-fluoro-2-pyrimidinyl)-2-oxo-1,2-dihydro-6-quinolinesulfonamide] | 0.03 µM
13 | COc1cc(CC2CCC2)c(F)cc1-n1c(=O)ccc2cc(S(=O)(=O)Nc3ccon3)ccc21 [Example 1078, 1-(4-(cyclobutylmethyl)-5-fluoro-2-methoxyphenyl)-N-3-isoxazolyl-2-oxo-1,2-dihydro-6-quinolinesulfonamide] | 0.069 µM
14 | COc1cc(-c2ccc(Cl)cc2)ccc1-n1c(=O)ccc2cc(S(=O)(=O)Nc3cc(C)ncn3)ccc21 [Example 767, 1-(4′-chloro-3-methoxy-4-biphenylyl)-N-(6-methyl-4-pyrimidinyl)-2-oxo-1,2-dihydro-6-quinolinesulfonamide] | 0.054 µM
15 | COc1nc(-c2ccc(Cl)c(C)c2)c(Cl)cc1-n1c(=O)ccc2cc(S(=O)(=O)Nc3ccon3)ccc21 [Example 1085, 1-(5-chloro-6-(4-chloro-3-methylphenyl)-2-methoxy-3-pyridinyl)-N-3-isoxazolyl-2-oxo-1,2-dihydro-6-quinolinesulfonamide] | 3.44 µM
16 | COc1cc(-c2ccc(Cl)c(C)c2)c(F)cc1-n1c(=O)ccc2cc(S(=O)(=O)Nc3nncs3)ccc21 [Example 1074, 1-(4′-chloro-2-fluoro-5-methoxy-3′-methyl-4-biphenylyl)-2-oxo-N-1,3,4-thiadiazol-2-yl-1,2-dihydro-6-quinolinesulfonamide] | 0.003 µM
17 | COc1cc(-c2ccc(C)cc2Cl)c(F)cc1-n1c(=O)ccc2cc(S(=O)(=O)Nc3ccon3)ccc21 [Example 725, 1-(2′-chloro-2-fluoro-5-methoxy-4′-methyl-4-biphenylyl)-N-3-isoxazolyl-2-oxo-1,2-dihydro-6-quinolinesulfonamide] | 0.012 µM
18 | COc1nc(C#CC2CCCC2)c(Cl)cc1-n1c(=O)ccc2cc(S(=O)(=O)Nc3cccnn3)ccc21 [Example 646, 1-(5-chloro-6-(cyclopentylethynyl)-2-methoxy-3-pyridinyl)-2-oxo-N-3-pyridazinyl-1,2-dihydro-6-quinolinesulfonamide] | 1.1 µM
19 | COc1ccc(-c2cc(F)cc(Cl)c2)cc1-n1c(=O)ccc2cc(S(=O)(=O)Nc3cccnn3)ccc21 [Example 861, 1-(3′-chloro-5′-fluoro-4-methoxy-3-biphenylyl)-2-oxo-N-3-pyridazinyl-1,2-dihydro-6-quinolinesulfonamide] | 0.038 µM
20 | COc1cc(-c2cc(Cl)cnc2OC)ccc1-n1c(=O)ccc2cc(S(=O)(=O)Nc3ccon3)ccc21 [Example 813, 1-(4-(5-chloro-2-methoxy-3-pyridinyl)-2-methoxyphenyl)-N-3-isoxazolyl-2-oxo-1,2-dihydro-6-quinolinesulfonamide] | 0.101 µM
21 | COc1cc(F)cc(-c2ccc(-n3c(=O)ccc4cc(S(=O)(=O)Nc5cccnn5)ccc43)c(OC)c2)c1 [Example 997, 1-(3′-fluoro-3,5′-dimethoxy-4-biphenylyl)-2-oxo-N-3-pyridazinyl-1,2-dihydro-6-quinolinesulfonamide] | 0.066 µM
22 | COc1cc(-c2ccc(F)c(C)c2)c(F)cc1-n1c(=O)ccc2cc(S(=O)(=O)Nc3cc(C)ncn3)ccc21 [Example 945, 1-(2,4′-difluoro-5-methoxy-3′-methyl-4-biphenylyl)-N-(6-methyl-4-pyrimidinyl)-2-oxo-1,2-dihydro-6-quinolinesulfonamide] | 0.034 µM
23 | COc1ccnc(-c2cc(OC)c(-n3c(=O)ccc4cc(S(=O)(=O)Nc5ccon5)ccc43)cc2F)n1 [Example 808, 1-(5-fluoro-2-methoxy-4-(4-methoxy-2-pyrimidinyl)phenyl)-N-3-isoxazolyl-2-oxo-1,2-dihydro-6-quinolinesulfonamide] | 3.07 µM
24 | COc1cc(-c2ccc(Cl)c(C#N)c2)c(F)cc1-n1c(=O)ccc2cc(S(=O)(=O)Nc3ncccn3)ccc21 [Example 871, 1-(4′-chloro-3′-cyano-2-fluoro-5-methoxy-4-biphenylyl)-2-oxo-N-2-pyrimidinyl-1,2-dihydro-6-quinolinesulfonamide] | 0.044 µM
25 | COc1cccc(-c2nc(OC)c(-n3c(=O)ccc4cc(S(=O)(=O)Nc5ccon5)ccc43)cc2Cl)c1 [Example 1093, 1-(5-chloro-2-methoxy-6-(3-methoxyphenyl)-3-pyridinyl)-N-3-isoxazolyl-2-oxo-1,2-dihydro-6-quinolinesulfonamide] | 4.95 µM
26 | COc1ccc(-c2ccc(Cl)c(C)c2)cc1-n1c(=O)ccc2cc(S(=O)(=O)Nc3ccon3)ccc21 [Example 872, 1-(4′-chloro-4-methoxy-3′-methyl-3-biphenylyl)-N-3-isoxazolyl-2-oxo-1,2-dihydro-6-quinolinesulfonamide] | 11.6 µM
27 | COc1cc(-c2ccc(OC(F)F)cc2)c(F)cc1-n1c(=O)ccc2cc(S(=O)(=O)Nc3ccon3)ccc21 [Example 763, 1-(4′-(difluoromethoxy)-2-fluoro-5-methoxy-4-biphenylyl)-N-3-isoxazolyl-2-oxo-1,2-dihydro-6-quinolinesulfonamide] | 0.03 µM

Same assay, conditions: in-vitro Nav 1.7 PX data (PatchXpress)

Row | Molecule | IC50
28 | COc1cc(-c2cc(OC)c(-n3c(=O)ccc4cc(S(=O)(=O)Nc5ncco5)ccc43)cc2F)ccc1Cl [Example 1040, 1-(4′-chloro-2-fluoro-3′,5-dimethoxy-4-biphenylyl)-N-1,3-oxazol-2-yl-2-oxo-1,2-dihydro-6-quinolinesulfonamide] | 0.031 µM
29 | N#CCOc1cc(Br)c(F)cc1-n1c(=O)ccc2cc(S(=O)(=O)Nc3ccon3)ccc21 [Example 623, 1-(4-bromo-2-(cyanomethoxy)-5-fluorophenyl)-N-(isoxazol-3-yl)-2-oxo-1,2-dihydroquinoline-6-sulfonamide] | 7.78 µM

Same assay, conditions: in-vitro Nav 1.7 PX data, Table 4

Row | Molecule | IC50
30 | COc1cc(-c2cnc(OC)c(Cl)c2)c(F)cc1-n1c(=O)ccc2cc(S(=O)(=O)Nc3ncco3)ccc21 (atropisomer, axis not shown; (P)) [Example 1158, (P)-1-(4-(5-chloro-6-methoxy-3-pyridinyl)-5-fluoro-2-methoxyphenyl)-N-1,3-oxazol-2-yl-2-oxo-1,2-dihydro-6-quinolinesulfonamide] | 0.089 µM

Same assay, conditions: in-vitro PatchXpress (PX)

Row | Molecule | IC50
31 | COc1nc(-c2cccc(F)c2)c(Cl)cc1-n1c(=O)ccc2cc(S(=O)(=O)Nc3ccon3)ccc21 [Example 341, 1-(5-chloro-6-(3-fluorophenyl)-2-methoxypyridin-3-yl)-N-(isoxazol-3-yl)-2-oxo-1,2-dihydroquinoline-6-sulfonamide] | 0.168 µM
